Reference: patent publication US6855730B2, “3-methylidenyl-2-indolinone modulators of protein kinase” (Sugen, Inc., priority 1998, dated 2005)

Key:
[1] = biological target: T1, chimeric receptor containing the EGFR extracellular domain and intracellular HER2 kinase domain (Homo sapiens, UniProt P04626); experiment: EGF Receptor-HER2 chimeric receptor assay in whole cells (ELISA); type: cell-based; settings: read-out: HER-2 kinase IC50
T1 construct: fused on or other part: EGFR ectodomain + HER2 intracellular part, ATP-site indolinones: HER2's kinase
T1 sequence (P04626 720-1255 limits assumed, change not shown): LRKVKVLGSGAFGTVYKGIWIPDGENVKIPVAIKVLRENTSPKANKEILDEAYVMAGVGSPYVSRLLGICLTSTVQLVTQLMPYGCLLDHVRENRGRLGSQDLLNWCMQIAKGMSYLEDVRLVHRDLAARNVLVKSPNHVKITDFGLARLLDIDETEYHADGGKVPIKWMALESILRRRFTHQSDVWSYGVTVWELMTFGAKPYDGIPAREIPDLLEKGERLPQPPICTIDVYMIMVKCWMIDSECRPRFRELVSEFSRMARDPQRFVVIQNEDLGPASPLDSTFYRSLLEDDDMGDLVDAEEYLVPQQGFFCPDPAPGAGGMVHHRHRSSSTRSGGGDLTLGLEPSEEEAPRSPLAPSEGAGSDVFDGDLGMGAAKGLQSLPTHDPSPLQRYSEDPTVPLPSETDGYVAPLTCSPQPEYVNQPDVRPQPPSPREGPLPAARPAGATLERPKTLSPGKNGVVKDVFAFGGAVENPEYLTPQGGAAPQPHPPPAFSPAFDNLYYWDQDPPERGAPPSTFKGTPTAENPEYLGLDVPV
Description: EGF Receptor-HER2 Chimeric Receptor Assay In Whole Cells.
HER2 kinase activity in whole EGFR-NIH3T3 cells are measured as described below:
• a. […] 05-101 (UBI) (a monoclonal antibody recognizing an EGFR extracellular domain). • c. Anti-phosphotyrosine antibody (anti-Ptyr) (polyclonal) (see, Fendley, et al., supra). • d. Detection antibody: Goat anti-rabbit IgG horseradish peroxidase conjugate, TAGO, Inc., Burlingame, Calif. • e. TBST buffer:
• h. Stock reagents of:
Pre-coat ELISA Plate • 1. […] Coated plates are good for up to 10 days when stored at 4° C. • 2. On day of use, remove coating buffer and replace with 100 μl blocking buffer (5% Carnation Instant Non-Fat Dry Milk in PBS). Incubate the plate, shaking, at room temperature (about 23° C. to 25° C.) for 30 minutes. Just prior to use, remove blocking buffer and wash plate 4 times with TBST buffer.
Seeding Cells • 1. An NIH3T3 cell line overexpressing a chimeric receptor containing the EGFR extracellular domain and intracellular HER2 kinase domain can be used for this assay. • 2. Choose dishes having 80-90% confluence for the experiment. Trypsinize cells and stop reaction by adding 10% fetal bovine serum. Suspend cells in DMEM medium (10% CS DMEM medium) and centrifuge once at 1500 rpm, at room temperature for 5 minutes. • 3. Resuspend cells in seeding medium (DMEM, 0.5% bovine serum), and count the cells using trypan blue. Viability above 90% is acceptable. Seed cells in DMEM medium (0.5% bovine serum) at a density of 10,000 cells per well, 100 μl per well, in a 96 well microtiter plate. Incubate seeded cells in 5% CO2. at 37° C. for about 40 hours.
Assay Procedures • 1. Check seeded cells for contamination using an inverted microscope. Dilute drug stock (10 mg/ml in DMSO) 1:10 in DMEM medium, then transfer 5 μl to a […] well for a final drug dilution of 1:200 and a final DMSO concentration of 1%. Control wells receive DMSO alone. Incubate in 5% CO2 at 37° C. for two hours. • 2. Prepare EGF ligand: dilute stock EGF in DMEM so that upon transfer of 10 μl dilute EGF (1:12 dilution), 100 nM final concentration is attained. • 3. Prepare fresh HNTG* sufficient for 100 μl per well, and place on ice.
• 4. After 120 minutes incubation with drug, add prepared […] ligand to cells, 10 μl per well, to a final concentration of 100 nM. Control wells receive DMEM alone. Incubate with shaking, at room temperature, for 5 minutes. • 5. Remove drug, EGF, and DMEM. Wash cells twice with PBS. Transfer HNTG* to cells, 100 μl per well. Place on ice for 5 minutes. Meanwhile, remove blocking buffer from other ELISA plate and wash with TBST as described above. • 6. With a pipette tip securely fitted to a micropipettor, scrape cells from plate and homogenize cell material by repeatedly aspirating and dispensing the HNTG* lysis buffer. Transfer lysate to a coated, blocked, and washed ELISA plate. Incubate shaking at room temperature for one hour. • 7. Remove lysate and wash 4 times with TBST. Transfer freshly diluted anti-Ptyr antibody to ELISA plate at 100 μl per well. Incubate shaking at room temperature for 30 minutes in the presence of the anti-Ptyr antiserum (1:3000 dilution in TBST). • 8. Remove the anti-Ptyr antibody and wash 4 times with TBST. Transfer the freshly diluted TAGO anti-rabbit IgG antibody to the ELISA plate at 100 μl per well. Incubate shaking at room temperature for 30 minutes (anti-rabbit IgG antibody: 1:3000 dilution in TBST). • 9. Remove TAGO detection antibody and wash 4 times with TBST. Transfer freshly prepared ABTS/H2O2 solution to ELISA plate, 100 μl per well. Incubate shaking at room temperature for 20 minutes. (ABTS/H2O2 solution: 1.0 μl 30% H2O2 in 10 ml ABTS stock). • 10. Stop reaction by adding 50 μl 5N H2SO4 (optional), and determine O.D. at 410 nm. • 11. The maximal phosphotyrosine signal is determined by subtracting the value of the negative controls from the positive controls. […]

EGFR = EGFR (Homo sapiens, UniProt P00533); experiment: Biochemical EGFR assay (ELISA, A431 cell lysate); design: A431 cell lysate (Screening Lab, SUGEN, Inc.); host or cells: A431; settings: read-out: bio EGFr IC50
Chain of EGFR (P00533 25-1210): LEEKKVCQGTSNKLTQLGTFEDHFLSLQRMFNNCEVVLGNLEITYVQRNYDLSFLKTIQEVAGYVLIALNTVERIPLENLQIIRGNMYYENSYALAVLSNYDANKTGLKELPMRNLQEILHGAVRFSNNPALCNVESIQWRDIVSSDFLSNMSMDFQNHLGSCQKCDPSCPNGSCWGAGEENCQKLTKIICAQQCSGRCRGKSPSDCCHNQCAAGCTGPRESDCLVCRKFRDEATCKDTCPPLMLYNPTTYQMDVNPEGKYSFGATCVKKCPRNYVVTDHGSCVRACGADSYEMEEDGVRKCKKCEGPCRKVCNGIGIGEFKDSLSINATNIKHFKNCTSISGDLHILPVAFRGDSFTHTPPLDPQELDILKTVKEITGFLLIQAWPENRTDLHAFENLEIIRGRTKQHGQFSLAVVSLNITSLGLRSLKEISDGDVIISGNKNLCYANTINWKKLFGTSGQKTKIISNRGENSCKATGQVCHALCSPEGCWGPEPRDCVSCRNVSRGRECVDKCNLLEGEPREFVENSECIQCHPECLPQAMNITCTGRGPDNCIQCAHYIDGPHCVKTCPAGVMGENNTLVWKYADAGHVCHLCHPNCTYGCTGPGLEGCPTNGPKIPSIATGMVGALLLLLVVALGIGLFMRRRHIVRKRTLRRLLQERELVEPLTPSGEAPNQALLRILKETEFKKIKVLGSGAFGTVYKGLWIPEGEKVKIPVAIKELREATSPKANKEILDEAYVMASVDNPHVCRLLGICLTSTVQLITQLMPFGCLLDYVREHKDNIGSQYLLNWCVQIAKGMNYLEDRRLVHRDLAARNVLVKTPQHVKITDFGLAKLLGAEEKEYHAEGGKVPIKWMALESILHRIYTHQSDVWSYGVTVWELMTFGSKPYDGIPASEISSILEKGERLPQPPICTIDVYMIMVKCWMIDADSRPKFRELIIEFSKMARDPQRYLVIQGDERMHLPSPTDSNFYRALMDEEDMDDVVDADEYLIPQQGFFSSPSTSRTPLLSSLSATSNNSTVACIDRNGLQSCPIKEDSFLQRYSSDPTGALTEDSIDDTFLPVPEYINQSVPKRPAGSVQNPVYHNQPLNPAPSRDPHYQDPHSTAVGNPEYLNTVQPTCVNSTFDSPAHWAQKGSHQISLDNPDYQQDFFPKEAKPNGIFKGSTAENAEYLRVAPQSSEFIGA
Description: This assay measures the in vitro kinase activity of EGFR using ELISA.
Materials and Reagents • 1. […] SUMO1 monoclonal anti-EGFR antibody (Biochemistry Lab, SUGEN, Inc.). • 3. PBS (Dulbecco's Phosphate-Buffered Saline, Gibco Catalog No. 450-1300EB). • 4. TBST Buffer
• 6. A431 cell lysate (Screening Lab, SUGEN, Inc.) • 7. TBS Buffer:
Prepare a 1.0 mM solution in dH2O. This reagent should be made up immediately prior to use and kept on ice. • 10. MnCl2.
Prepare a 1.0 M stock solution in dH2O. • 11. ATP/MnCl2 phosphorylation mix
This reagent should be prepared immediately before use and kept on ice. • 12. NUNC 96-well V bottom polypropylene plates (Applied Scientific Cat. No. AS-72092). • 13. Ethylenediaminetetraacetic acid (EDTA)
Prepare 200 mM working solution in dH2O. Adjust to pH 8.0 with 10 N NaOH. • 14. Rabbit polyclonal anti-phosphotyrosine serum (Biochemistry Lab, SUGEN, Inc.) • 15. Goat anti-rabbit IgG peroxidase conjugate (Biosource Cat. No. ALI0404) • 16. ABTS (2,2′-azino-bis(3-ethylbenzthiazoline-6-sulfonic acid), Sigma Cat. No. A-1888).
Mix first two ingredients in about 900 ml dH2O, adjust pH to 4.0 with phosphoric acid. Add ABTS, cover, let sit about 0.5 hr., filter. The solution should be kept in the dark at 4° C. until ready to use. • 17. Hydrogen peroxide 30% solution (Fisher Cat. No. H325) • 18. ABTS/H2O2 • Mix 15 ml ABTS solution and 2.0 μl H2O2. Prepare 5 minutes before use. • 19. 0.2 M HCl
Procedure • 1. Coat Corning 96 well ELISA plates with 0.5 μg SUMO1 in 100 μl PBS per well, store overnight at 4° C. • 2. Remove unbound SUMO1 from wells by inverting plate to remove liquid., Wash 1× with dH2O. Pat the plate on a paper towel to remove excess liquid. • 3. Add 150 μl of Blocking Buffer to each well. Incubate for 30 min. at room temperature with shaking. • 4. Wash plate 3× with deionized water, then once with TBST. Pat plate on a paper towel to remove excess liquid and bubbles. • 5. Dilute lysate in PBS (7 μg lysate/100 μl PBS). • 6. Add 100 μl of diluted lysate to each well. Shake at room temperature for 60 min. • 7. Wash plates as described in 4, above. • 8. Add 120 μl TBS to ELISA plate containing captured EGFR. • 9. Dilute test compound 1:10 in TBS in 96-well polypropylene plates (i.e. 10 μl compound+90 μl TBS). • 10. Add 13.5 μl diluted test compound to ELISA plate. […] Incubate for 30 minutes while shaking at room temperature. • 12. […] After 5 minutes, stop reaction by adding 16.5 μl of 200 mM EDTA (pH 8.0) to each well, shaking continuously. After the EDTA has been added, shake for 1 min. • 14. Wash 4× with deionized water, twice with TBST. • 15. Add 100 μl anti-phosphotyrosine (1:3000 dilution in TBST) per well. Incubate 30-45 min. at room temperature, with shaking. • 16. Wash as described in 4, above. • 17. Add 100 μl Biosource Goat anti-rabbit IgG peroxidase conjugate (1:2000 dilution in TBST) to each well. Incubate 30 min. at room temperature, with shaking. • 18. Wash as described in 4, above. • 19. Add 100 μl of ABTS/H2O2 solution to each well. • 20. Incubate 5 to 10 minutes with shaking. Remove any bubbles. • 21. If necessary stop reaction with the addition of 100 μl 1 0.2 M HCl per well. • 22. Read assay on Dynatech MR7000 ELISA reader. Test Filter: 410 nM Reference Filter: 630 Nm.

PDGFR-β = biological target: T2, PDGFR-β (Homo sapiens, UniProt P09619); experiment: Biochemical PDGFR assay (ELISA, PDGFR-β expressing NIH 3T3 cell lysate); settings: read-out: bio PDGF IC50
T2 construct: host or cells: NIH 3T3
T2 sequence (P09619 33-1106): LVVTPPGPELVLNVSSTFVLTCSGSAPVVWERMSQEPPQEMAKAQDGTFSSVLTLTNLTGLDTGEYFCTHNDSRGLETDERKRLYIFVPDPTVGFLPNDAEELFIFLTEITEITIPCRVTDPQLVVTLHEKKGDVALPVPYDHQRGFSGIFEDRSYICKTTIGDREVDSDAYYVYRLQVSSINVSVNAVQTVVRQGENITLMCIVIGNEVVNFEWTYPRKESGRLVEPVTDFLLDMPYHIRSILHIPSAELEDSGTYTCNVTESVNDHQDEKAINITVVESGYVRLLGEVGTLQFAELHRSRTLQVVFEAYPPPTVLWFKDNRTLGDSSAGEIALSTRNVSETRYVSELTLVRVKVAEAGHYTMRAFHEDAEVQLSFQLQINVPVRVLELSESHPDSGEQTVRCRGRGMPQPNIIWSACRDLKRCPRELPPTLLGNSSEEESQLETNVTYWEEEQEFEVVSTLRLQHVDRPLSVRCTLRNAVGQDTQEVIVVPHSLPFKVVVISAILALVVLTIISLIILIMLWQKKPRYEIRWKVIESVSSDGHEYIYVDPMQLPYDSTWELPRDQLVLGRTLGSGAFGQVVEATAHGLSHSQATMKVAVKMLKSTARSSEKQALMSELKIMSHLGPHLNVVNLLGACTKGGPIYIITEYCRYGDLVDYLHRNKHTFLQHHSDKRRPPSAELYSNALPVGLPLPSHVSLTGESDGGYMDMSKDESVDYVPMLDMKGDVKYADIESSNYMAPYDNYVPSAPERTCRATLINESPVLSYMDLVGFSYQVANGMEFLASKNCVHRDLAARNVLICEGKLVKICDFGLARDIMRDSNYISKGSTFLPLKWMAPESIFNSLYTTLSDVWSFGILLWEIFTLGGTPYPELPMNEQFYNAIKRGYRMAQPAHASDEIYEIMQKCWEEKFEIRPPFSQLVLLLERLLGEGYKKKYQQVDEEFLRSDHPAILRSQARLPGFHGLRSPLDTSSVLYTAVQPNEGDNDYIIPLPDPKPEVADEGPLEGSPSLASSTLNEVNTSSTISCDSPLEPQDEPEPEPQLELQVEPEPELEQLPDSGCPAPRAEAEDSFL
Source text: This assay measures the in vitro kinase activity of PDGFR using ELISA.
Unless otherwise noted, the preparation of working solution-of the following reagents is the same as that for the Biochemical EGFR assay, above. • 1. […] 28D4C10 monoclonal anti-PDGFR antibody (Biochemistry Lab, SUGEN, Inc.). • 3. PBS (Dulbecco's Phosphate-Buffered Saline, Gibco Catalog No. 450-1300EB) • 4. TBST Buffer. • 5. Blocking Buffer. • 6. PDGFR-β expressing NIH 3T3 cell lysate (Screening Lab, SUGEN, Inc.). • 7. TBS Buffer. • 8. TBS+10% DMSO. • 9. […] MnCl2. • 11. Kinase buffer phosphorylation mix.
• 12. NUNC 96-well V bottom polypropylene plates (Applied Scientific Cat. No. AS-72092). • 13. Ethylenediaminetetraacetic acid (EDTA). • 14. Rabbit polyclonal anti-phosphotyrosine serum (Biochemistry Lab, SUGEN, Inc.). • 15. Goat anti-rabbit IgG peroxidase conjugate (Biosource Cat. No. ALI0404). • 16. 2,2′-azino-bis(3-ethylbenzthiazoline-6-sulfonic acid) (ABTS, Sigma Cat. No. A-1888). • 17. Hydrogen peroxide 30% solution (Fisher Cat. No. H325). • 18. ABTS/H2O2. • 19. 0.2 M HCl.
Procedure • 1. Coat Corning 96 well ELISA plates with 0.5 μg 28D4C10 in 100 μl PBS per well, store overnight at 4° C. • 2. Remove unbound 28D4C10 from wells by inverting plate to remove liquid. Wash 1× with dH2O. Pat the plate on a paper towel to remove excess liquid. • 3. Add 150 μl of Blocking Buffer to each well. Incubate for 30 min. at room temperature with shaking. • 4. Wash plate 3× with deionized water, then once with TBST. Pat plate on a paper towel to remove excess liquid and bubbles. • 5. Dilute lysate in HNTG (10 μg lysate/100 μl HNTG) • 6. Add 100 μl of diluted lysate to each well. Shake at room temperature for 60 min. • 7. Wash plates as described in 4, above. • 8. Add 80 μl working kinase buffer mix to ELISA plate containing captured PDGFR. • 9. Dilute test compound 1:10 in TBS in 96-well polypropylene plates (i.e., 10 μl compound+90 μl TBS). • 10. Add 10 μl diluted test compound to ELISA plate. […] Incubate for 30 minutes while shaking at room temperature. • 12. Add 10 μl ATP directly to all wells except negative control well (final well volume should be approximately 100 μl with 20 μM ATP in each well.) Incubate 30 minutes while shaking. • 13. After 30 minutes, stop reaction by adding 10 μl of 200 mM EDTA (pH 8.0) to each well. • 14. Wash 4× with deionized water, twice with TBST. • 15. Add 100 μl anti-phosphotyrosine (1:3000 dilution in TBST) per well. Incubate 30-45 min. at room temperature, with shaking. • 16. Wash as described in 4, above. • 17. Add 100 μl Biosource Goat anti-rabbit IgG peroxidase conjugate (1:2000 dilution in TBST) to each well. Incubate 30 min. at room temperature, with shaking. • 18. Wash as described in 4, above. • 19. Add 100 μl of ABTS/H2O2 solution to each well. • 20. Incubate 10 to 30 minutes with shaking. Remove any bubbles. • 21. If necessary stop reaction with the addition of 100 μl 0.2 M HCl per well. • 22. Read assay on Dynatech MR7000 ELISA reader: test filter: 410 nM, reference filter: 630 nM.

flkGST = biological target: T3, flkGST (Homo sapiens, UniProt P35968); experiment: bio flkGST assay; type: biochemical
T3 construct: GST
T3 sequence (P35968 786-1356 limits assumed): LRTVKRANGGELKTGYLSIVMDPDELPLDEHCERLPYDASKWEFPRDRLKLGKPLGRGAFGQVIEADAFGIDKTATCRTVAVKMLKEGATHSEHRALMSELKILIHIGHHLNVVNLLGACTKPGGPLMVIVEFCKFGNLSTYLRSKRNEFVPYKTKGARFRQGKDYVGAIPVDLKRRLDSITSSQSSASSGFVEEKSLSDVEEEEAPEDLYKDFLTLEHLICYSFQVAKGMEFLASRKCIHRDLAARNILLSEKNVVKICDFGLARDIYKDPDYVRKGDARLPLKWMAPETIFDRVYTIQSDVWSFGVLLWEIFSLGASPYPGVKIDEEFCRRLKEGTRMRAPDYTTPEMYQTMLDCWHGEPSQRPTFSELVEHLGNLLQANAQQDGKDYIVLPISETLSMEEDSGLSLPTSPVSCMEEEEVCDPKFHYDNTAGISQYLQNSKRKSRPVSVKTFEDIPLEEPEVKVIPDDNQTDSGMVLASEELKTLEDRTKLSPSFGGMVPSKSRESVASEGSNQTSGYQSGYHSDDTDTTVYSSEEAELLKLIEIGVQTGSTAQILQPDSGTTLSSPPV

| Compound | IC50 [1] [µM] | IC50 (EGFR) [µM] | IC50 (PDGFR-β) [µM] | IC50 (flkGST) [µM] |
| --- | --- | --- | --- | --- |
| Cc1c(C=C2C(=O)Nc3ccc(S(=O)(=O)N(C)C)cc32)[nH]c2ccccc12 (racemic) [Example 155, 3-(3-Methyl-1H-indol-2-ylmethylene)-2-oxo-2,3-dihydro-1H-indole-5-sulfonic acid dimethylamide] | > 100 | > 100 | – | – |
| CCOC(=O)c1c(C)[nH]c(/C=C2\C(=O)Nc3ccc(OC)cc32)c1CCCN(C)C [Example 120, 4-(3-Dimethylaminopropyl)-5-(5-methoxy-2-oxo-1,2-dihydroindol-3-ylidenemethyl)-2-methyl-1H-pyrrole-3-carboxylic acid ethyl ester] | – | – | 9.97 | 6.32 |
| CCOC(=O)c1c(C)[nH]c(/C=C2\C(=O)Nc3cccc(CCO)c32)c1CCCN(C)C [Example 135, 4-(3-Dimethylaminopropyl)-5-[4-(2-hydroxyethyl)-2-oxo-1,2-dihydroindol-3-ylidenemethyl]-2-methyl-1H-pyrrole-3-carboxylic acid ethyl ester] | – | 0.19 | 0.5 | – |
| O=C(O)CCc1c(C=C2C(=O)Nc3cc(N4CCOCC4)ccc32)[nH]c2c1CCCC2 [Example 209, 3-[2-(6-Morpholin-4-yl-2-oxo-1,2-dihydroindol-3-ylidenemethyl)-4,5,6,7-tetrahydro-1H-indol-3-yl]-propionic acid] | – | > 100 | 84.6 | – |
